Drawing on patent publication US20260325533A1, “CDK INHIBITOR COMPOUNDS” (ALEKSIA THERAPEUTICS, INC., priority 2023, published 2026), this text covers IC50 for 15 compounds.

Each structure is given as a SMILES string. Read-outs that look alike come from different tables or passages of the source.

Type in all cases: biochemical
One assay has as its target CDK2/CCNE1 (Homo sapiens, UniProt P24941). Kind of assay: CDK2 homogeneous time-resolved fluorescence (HTRF) kinase assay. Conditions: CDK2/CCNE. The method, boiled down:
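IC50 derived from 11-point, half-log dilutions (usually top 10 μM) of compound, 1% DMSO. Kinase (3 nM CDK2/CCNE1) was preincubated with compound 20 min, then phosphorylated 50 nM ULight-4E-BP1 peptide at 1 mM ATP for 60 min, 23 °C. Europium-antibody TR-FRET read after EDTA stop.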

The target in a further assay is CDK1/CCNB1 (Homo sapiens, UniProt P06493). The assay can be described thus: CDK1 homogeneous time-resolved fluorescence (HTRF) kinase assay. Conditions: CDK1/CCNB. The method, boiled down: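 Read-out: TR-FRET (Eu anti-phospho-4E-BP1 Thr37/46 antibody, 2 nM; 665 nm or 665/615 ratio) after 60 min phosphorylation of 50 nM ULight-peptide by 0.5 nM CDK1/CCNB1 at 1 mM ATP, 23 °C. Compound preincubated 20 min with enzyme; 1% DMSO.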

The next assay addresses CDK4/CCND3 (Homo sapiens, UniProt P11802). The assay can be described thus: CDK4 homogeneous time-resolved fluorescence (HTRF) kinase assay. Conditions: CDK4/CCND. The gist of the method: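 IC50s derive from Lance 665 nm or 665/615 nm signals in 11-point, half-log dose series (top 10 μM, 1% DMSO). The enzyme, 1.5 nM CDK4/CCND3, phosphorylates 50 nM ULight-4E-BP1 peptide with 1 mM ATP over 60 min at 23 °C.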

The next assay deals with CDK6/CCND1 (Homo sapiens, UniProt Q00534). The assay can be described thus: CDK6 homogeneous time-resolved fluorescence (HTRF) kinase assay. Conditions: CDK6/CCND. The method, boiled down: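 Assay conditions: HEPES buffer containing 10 mM MgCl2, 1 mM EGTA, 2 mM DTT, 0.01% Tween 20; 1 nM CDK6/CCND1, 50 nM peptide substrate, 1 mM ATP. Detection after 60 min reaction used 2 nM europium antibody with 340 nm excitation. Potency fitted from half-log series, 11 points.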

[1] abbreviates: <25 nM, read-out: CDK2/CCNE IC50 <25 nM.
[2] abbreviates: >250 nM marked x, read-out: CDK1/CCNB IC50 >250 nM.
[3] abbreviates: >250 nM marked x, read-out: CDK4/CCND IC50 >250 nM.
Where [4] appears, read: >250 nM marked x, read-out: CDK6/CCND IC50 >250 nM.
Where [5] appears, read: 25-250 nM marked x, read-out: CDK1/CCNB IC50 25-250 nM.
Setting [6] is: 25-250 nM marked x, read-out: CDK4/CCND IC50 25-250 nM.
Where [7] appears, read: 25-250 nM marked x, read-out: CDK2/CCNE IC50 25-250 nM.

Chain of CDK1/CCNB1 (P06493 whole entry): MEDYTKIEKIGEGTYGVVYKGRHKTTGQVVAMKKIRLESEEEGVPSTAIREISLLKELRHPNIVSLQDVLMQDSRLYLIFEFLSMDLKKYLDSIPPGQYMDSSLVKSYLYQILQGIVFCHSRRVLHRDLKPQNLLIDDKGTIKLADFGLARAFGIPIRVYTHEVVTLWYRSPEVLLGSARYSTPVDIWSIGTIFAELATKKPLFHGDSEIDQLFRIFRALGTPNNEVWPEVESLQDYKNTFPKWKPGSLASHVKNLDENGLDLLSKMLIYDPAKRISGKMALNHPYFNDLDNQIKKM
Chain of CDK1/CCNB1 (P14635 whole entry partner): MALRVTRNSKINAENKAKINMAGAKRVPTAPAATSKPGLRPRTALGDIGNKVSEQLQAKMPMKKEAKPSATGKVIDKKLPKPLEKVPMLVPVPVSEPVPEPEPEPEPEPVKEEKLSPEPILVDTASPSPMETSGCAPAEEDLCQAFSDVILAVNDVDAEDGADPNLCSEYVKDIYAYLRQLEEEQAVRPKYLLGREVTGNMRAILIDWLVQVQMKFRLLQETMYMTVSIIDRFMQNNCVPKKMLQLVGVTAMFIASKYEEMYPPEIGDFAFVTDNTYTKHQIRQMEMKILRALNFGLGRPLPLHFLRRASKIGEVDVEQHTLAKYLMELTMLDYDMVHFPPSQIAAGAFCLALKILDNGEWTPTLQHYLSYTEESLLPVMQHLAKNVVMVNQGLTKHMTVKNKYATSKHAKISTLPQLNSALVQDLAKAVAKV
Chain of CDK4/CCND3 (P11802 whole entry): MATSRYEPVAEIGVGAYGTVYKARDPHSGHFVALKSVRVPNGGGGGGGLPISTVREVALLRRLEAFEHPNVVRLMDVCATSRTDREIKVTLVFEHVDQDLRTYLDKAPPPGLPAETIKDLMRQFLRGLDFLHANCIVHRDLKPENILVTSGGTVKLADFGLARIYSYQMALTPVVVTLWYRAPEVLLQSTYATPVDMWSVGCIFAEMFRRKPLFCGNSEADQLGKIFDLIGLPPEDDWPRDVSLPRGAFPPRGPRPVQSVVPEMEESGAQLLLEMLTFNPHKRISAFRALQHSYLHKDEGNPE
Chain of CDK4/CCND3 (P30281 whole entry partner): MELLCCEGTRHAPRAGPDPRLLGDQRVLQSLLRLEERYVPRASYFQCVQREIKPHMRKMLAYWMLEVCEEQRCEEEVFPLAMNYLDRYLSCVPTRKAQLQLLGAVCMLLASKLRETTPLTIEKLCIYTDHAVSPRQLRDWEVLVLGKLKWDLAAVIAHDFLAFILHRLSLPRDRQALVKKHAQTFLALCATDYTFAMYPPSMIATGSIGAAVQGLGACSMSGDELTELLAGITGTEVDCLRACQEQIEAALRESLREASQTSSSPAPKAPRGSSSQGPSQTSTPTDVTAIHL
Chain of CDK6/CCND1 (Q00534 whole entry): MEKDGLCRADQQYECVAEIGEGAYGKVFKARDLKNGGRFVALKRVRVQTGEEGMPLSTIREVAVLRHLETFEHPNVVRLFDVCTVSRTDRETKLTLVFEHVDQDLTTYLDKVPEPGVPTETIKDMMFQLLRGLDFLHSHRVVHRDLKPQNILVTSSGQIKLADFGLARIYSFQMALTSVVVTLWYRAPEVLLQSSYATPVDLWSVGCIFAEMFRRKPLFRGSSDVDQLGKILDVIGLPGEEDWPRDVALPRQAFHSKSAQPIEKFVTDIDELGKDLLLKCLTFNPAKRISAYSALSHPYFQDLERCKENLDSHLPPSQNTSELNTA
Chain of CDK6/CCND1 (P24385 whole entry partner): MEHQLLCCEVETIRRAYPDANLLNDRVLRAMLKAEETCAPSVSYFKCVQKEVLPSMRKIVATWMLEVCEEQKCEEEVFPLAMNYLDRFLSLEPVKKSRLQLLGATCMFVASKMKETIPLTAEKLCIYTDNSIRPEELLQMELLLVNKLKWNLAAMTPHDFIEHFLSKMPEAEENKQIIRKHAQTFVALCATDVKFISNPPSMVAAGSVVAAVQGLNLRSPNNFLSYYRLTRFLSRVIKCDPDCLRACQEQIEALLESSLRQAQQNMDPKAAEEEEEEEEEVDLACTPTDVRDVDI

Take `COc1cc(S(C)(=N)=O)ccc1Nc1cc2c(C#Cc3ccc4c(c3)NC(=O)C43CC3)nccc2cn1` (single isomer, unassigned) [Ex 305, 6'-((7-((2-methoxy-4-(S-methylsulfonimidoyl)phenyl)amino)-2,6-naphthyridin-1-yl)ethynyl)spiro[cyclopropane-1,3'-indolin]-2'-one]: the IC50 at CDK2/CCNE1 (setting [1]) is below 25 nM; at CDK1/CCNB1 (setting [2]) it was above 250 nM; at CDK4/CCND3 (setting [3]), above 250 nM; on CDK6/CCND1 (setting [4]) it was above 250 nM.
On to `N=S(=O)(c1ccc(Nc2cc3c(C#Cc4ccc5c(c4)NC(=O)C54CC4)nccc3cn2)cc1)C1CC1` (single isomer, unassigned) [Ex 306, 6'-((7-((4-(cyclopropanesulfonimidoyl)phenyl)amino)-2,6-naphthyridin-1-yl)ethynyl)spiro[cyclopropane-1,3'-indolin]-2'-one], for which the IC50 on CDK2/CCNE1 (setting [1]) was below 25 nM; at CDK1/CCNB1 (setting [5]), 25 to 250 nM; on CDK4/CCND3 (setting [6]), 25 to 250 nM; at CDK6/CCND1 (25-250 nM marked x, read-out: CDK6/CCND IC50 25-250 nM), 25 to 250 nM.
As for `CCC1(CC)C(=O)Nc2cc(C#Cc3nccc4cnc(Nc5ccc(S(=N)(=O)CC)cc5OC)cc34)ccc21` (single isomer, unassigned) [Ex 308, 3,3-diethyl-6-((7-((4-(ethylsulfonimidoyl)-2-methoxyphenyl)amino)-2,6-naphthyridin-1-yl)ethynyl)indolin-2-one], the IC50 was 25 to 250 nM at CDK2/CCNE1 (setting [7]), above 250 nM on CDK1/CCNB1 (setting [2]), above 250 nM at CDK4/CCND3 (setting [3]) and above 250 nM at CDK6/CCND1 (setting [4]).
As for `CCS(=N)(=O)c1ccc(Nc2cc3c(C#Cc4ccc5c(c4)NC(=O)C54CCC4)nccc3cn2)c(OC)c1` (single isomer, unassigned) [Ex 310, 6'-((7-((4-(ethylsulfonimidoyl)-2-methoxyphenyl)amino)-2,6-naphthyridin-1-yl)ethynyl)spiro[cyclobutane-1,3'-indolin]-2'-one], the IC50 was below 25 nM at CDK2/CCNE1 (setting [1]), above 250 nM at CDK1/CCNB1 (setting [2]), above 250 nM at CDK4/CCND3 (setting [3]) and above 250 nM at CDK6/CCND1 (setting [4]).
Consider `COc1cc(S(C)(=N)=O)ccc1Nc1cc2c(C#Cc3ccc4c(c3)NC(=O)C43CCC3)nccc2cn1` (single isomer, unassigned) [Ex 313, 6'-((7-((2-methoxy-4-(S-methylsulfonimidoyl)phenyl)amino)-2,6-naphthyridin-1-yl)ethynyl)spiro[cyclobutane-1,3'-indolin]-2'-one], for which the IC50 at CDK2/CCNE1 (setting [7]) was 25 to 250 nM; on CDK1/CCNB1 (setting [2]) it was above 250 nM; at CDK4/CCND3 (setting [3]), above 250 nM; at CDK6/CCND1 (setting [4]), above 250 nM.
Regarding `CCC1(CC)C(=O)Nc2cc(C#Cc3nccc4cnc(Nc5ccc(S(=N)(=O)C6COC6)cc5C)cc34)ccc21` (single isomer, unassigned) [Ex 316, 3,3-diethyl-6-((7-((2-methyl-4-(oxetane-3-sulfonimidoyl)phenyl)amino)-2,6-naphthyridin-1-yl)ethynyl)indolin-2-one], the IC50 is below 25 nM at CDK2/CCNE1 (setting [1]), above 250 nM on CDK1/CCNB1 (setting [2]), above 250 nM on CDK4/CCND3 (setting [3]) and above 250 nM at CDK6/CCND1 (setting [4]).
With `CCC1(CC)C(=O)Nc2cc(C#Cc3nccc4cnc(Nc5ccc(S(=N)(=O)C6COC6)cc5OC)cc34)ccc21` (single isomer, unassigned) [Ex 317, 3,3-diethyl-6-((7-((2-methoxy-4-(oxetane-3-sulfonimidoyl)phenyl)amino)-2,6-naphthyridin-1-yl)ethynyl)indolin-2-one], the IC50 at CDK2/CCNE1 (setting [7]) is 25 to 250 nM; at CDK1/CCNB1 (setting [2]), above 250 nM; on CDK4/CCND3 (setting [3]) it was above 250 nM; at CDK6/CCND1 (setting [4]), above 250 nM.
`CCC1(CC)C(=O)Nc2cc(C#Cc3nccc4cnc(Nc5ccc(S(C)(=N)=O)cc5OC)cc34)ccc21` (single isomer, unassigned) [Ex 319, 3,3-diethyl-6-((7-((2-methoxy-4-(S-methylsulfonimidoyl)phenyl)amino)-2,6-naphthyridin-1-yl)ethynyl)indolin-2-one]: the IC50 is 25 to 250 nM on CDK2/CCNE1 (setting [7]), above 250 nM at CDK1/CCNB1 (setting [2]), above 250 nM at CDK4/CCND3 (setting [3]) and above 250 nM at CDK6/CCND1 (setting [4]).
`COc1cc(S(=N)(=O)C2COC2)ccc1Nc1cc2c(C#Cc3ccc4c(c3)NC(=O)C43CC3)nccc2cn1` (single isomer, unassigned) [Ex 323, 6'-((7-((2-methoxy-4-(oxetane-3-sulfonimidoyl)phenyl)amino)-2,6-naphthyridin-1-yl)ethynyl)spiro[cyclopropane-1,3'-indolin]-2'-one]: the IC50 is below 25 nM on CDK2/CCNE1 (setting [1]), above 250 nM at CDK1/CCNB1 (setting [2]), above 250 nM at CDK4/CCND3 (setting [3]) and above 250 nM on CDK6/CCND1 (setting [4]).
For the compound `Cc1cc(S(C)(=N)=O)ccc1Nc1cc2c(C#Cc3ccc4c(c3)NC(=O)C43CC3)nccc2cn1` (single isomer, unassigned) [Ex 326, 6'-((7-((2-methyl-4-(S-methylsulfonimidoyl)phenyl)amino)-2,6-naphthyridin-1-yl)ethynyl)spiro[cyclopropane-1,3'-indolin]-2'-one], the IC50 on CDK2/CCNE1 (setting [1]) is below 25 nM; at CDK1/CCNB1 (setting [5]), 25 to 250 nM; at CDK4/CCND3 (setting [6]) it was 25 to 250 nM; at CDK6/CCND1 (setting [4]) it was above 250 nM.
As for `Cc1cc(S(C)(=N)=O)ccc1Nc1cc2c(C#Cc3ccc4c(c3)NC(=O)C43CCC3)nccc2cn1` (single isomer, unassigned) [Ex 332, 6'-((7-((2-methyl-4-(S-methylsulfonimidoyl)phenyl)amino)-2,6-naphthyridin-1-yl)ethynyl)spiro[cyclobutane-1,3'-indolin]-2'-one], the IC50 on CDK2/CCNE1 (setting [1]) was below 25 nM; at CDK1/CCNB1 (setting [2]), above 250 nM; at CDK4/CCND3 (setting [3]), above 250 nM; at CDK6/CCND1 (setting [4]), above 250 nM.
As to `COc1cc(S(=N)(=O)C(C)C)ccc1Nc1cc2c(C#Cc3ccc4c(c3)NC(=O)C43CC3)nccc2cn1` (single isomer, unassigned) [Ex 334, 6'-((7-((2-methoxy-4-(propan-2-ylsulfonimidoyl)phenyl)amino)-2,6-naphthyridin-1-yl)ethynyl)spiro[cyclopropane-1,3'-indolin]-2'-one], the IC50 on CDK2/CCNE1 (setting [1]) is below 25 nM; on CDK1/CCNB1 (setting [2]) it was above 250 nM; at CDK4/CCND3 (setting [3]) it was above 250 nM; on CDK6/CCND1 (setting [4]) it was above 250 nM.
In the case of `CCC1(CC)C(=O)Nc2cc(C#Cc3nccc4cnc(Nc5ccc(S(C)(=N)=O)cc5C)cc34)ccc21` (single isomer, unassigned) [Ex 336, 3,3-diethyl-6-((7-((2-methyl-4-(S-methylsulfonimidoyl)phenyl)amino)-2,6-naphthyridin-1-yl)ethynyl)indolin-2-one], the IC50 is below 25 nM on CDK2/CCNE1 (setting [1]), 25 to 250 nM at CDK1/CCNB1 (setting [5]), above 250 nM on CDK4/CCND3 (setting [3]) and above 250 nM on CDK6/CCND1 (setting [4]).
Regarding `CCC1(CC)C(=O)Nc2cc(C#Cc3nccc4cnc(Nc5ccc(S(=N)(=O)C6CC6)cc5)cc34)ccc21` (single isomer, unassigned) [Ex 339, 6-((7-((4-(cyclopropanesulfonimidoyl)phenyl)amino)-2,6-naphthyridin-1-yl)ethynyl)-3,3-diethylindolin-2-one], the IC50 on CDK2/CCNE1 (setting [1]) was below 25 nM; on CDK1/CCNB1 (setting [5]), 25 to 250 nM; on CDK4/CCND3 (setting [3]), above 250 nM; at CDK6/CCND1 (setting [4]), above 250 nM.
For the compound `CCC1(CC)C(=O)Nc2cc(C#Cc3nccc4cnc(Nc5ccc(S(=N)(=O)C(C)C)cc5OC)cc34)ccc21` (single isomer, unassigned) [Ex 340, 3,3-diethyl-6-((7-((2-methoxy-4-(propan-2-ylsulfonimidoyl)phenyl)amino)-2,6-naphthyridin-1-yl)ethynyl)indolin-2-one], the IC50 at CDK2/CCNE1 (setting [1]) is below 25 nM; at CDK1/CCNB1 (setting [2]), above 250 nM; on CDK4/CCND3 (setting [3]), above 250 nM; at CDK6/CCND1 (setting [4]) it was above 250 nM.
